According to the supplement of paper PMC8617591:

How the values were obtained:
[1] = system: Mycobacterium tuberculosis Erdman (autoluminescent); assay: FIC90 (Loewe) at 90% inhibition (log2); higher = more antagonistic
Description: (§1)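 DiaMOND equipotent two-drug combination dose responses against autoluminescent M. tuberculosis Erdman in 8 in vitro models. Read-out is OD600, or luminescence for the intracellular and dormancy models, normalised to untreated wells. Hill-fit Einf, AUC25 and GRinf are potency metrics; FIC50 and FIC90 are Loewe-additivity fractional inhibitory concentrations, given as log2 (negative = synergy). Replicates are averaged.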

[2] = system: Mycobacterium tuberculosis Erdman (autoluminescent); assay: AUC25, normalised area under dose response up to IC25 (fraction (0-1)); higher = more potent at low dose
Description: as §1

[3] = system: Mycobacterium tuberculosis Erdman (autoluminescent); assay: FIC50 (Loewe) at 50% inhibition (log2); higher = more antagonistic
Description: as §1

[4] = system: Mycobacterium tuberculosis Erdman (autoluminescent); assay: GRinf, maximum normalised growth rate inhibition (unitless (-1 to 1)); higher = less effect (negative = killing)
Description: as §1

[5] = system: Mycobacterium tuberculosis Erdman (autoluminescent); assay: Einf, fitted maximum growth inhibition of combination (fraction); higher = stronger maximal inhibition
Description: as §1

CC(C)/N=c1\cc2n(-c3ccc(Cl)cc3)c3ccccc3nc-2cc1Nc1ccc(Cl)cc1 [clofazimine] + NC(=O)c1cnccn1 [pyrazinamide]
Conditions	AUC25, [2]	Einf, [5]	FIC50, [3]	FIC90, [1]	GRinf, [4]
in vitro model: acidic pH 5.7, time point: constant (~7 days, model-specific)	0.0987	0.807	-0.0856	–	-0.109
in vitro model: acidic pH 5.7, time point: terminal (~4-5 doublings, model-specific)	0.106	0.98	-0.519	-0.794	-0.397
in vitro model: intracellular J774, time point: constant = terminal	–	0.996	–	0.158	-0.38

Conditions	AUC25, [2]	Einf, [5]	FIC50, [3]	FIC90, [1]	GRinf, [4]
in vitro model: butyrate, time point: constant (~7 days, model-specific)	0.116	0.922	-0.639	0.884	-0.0318
in vitro model: butyrate, time point: terminal (~4-5 doublings, model-specific)	0.0881	0.958	-0.58	-0.361	-0.00889
in vitro model: cholesterol 0.05 mM, time point: constant (~7 days, model-specific)	0.146	0.653	–	–	-0.153
in vitro model: cholesterol 0.05 mM, time point: terminal (~4-5 doublings, model-specific)	0.143	0.923	0.474	–	-0.338
in vitro model: cholesterol-high 0.2 mM, time point: constant (~7 days, model-specific)	0.116	0.896	0.166	–	-0.475
in vitro model: cholesterol-high 0.2 mM, time point: terminal (~4-5 doublings, model-specific)	0.0971	1	0.233	0.114	-0.881
in vitro model: dormancy (butyrate + nitrate, low O2), time point: constant (~7 days, model-specific)	0.12	0.935	-0.722	-0.326	-0.0386
in vitro model: dormancy (butyrate + nitrate, low O2), time point: terminal (~4-5 doublings, model-specific)	0.0754	0.989	-0.936	-0.669	-0.387
in vitro model: standard 7H9 glycerol, time point: constant = terminal	0.11	0.96	-0.68	–	-0.102
in vitro model: valerate, time point: constant (~7 days, model-specific)	0.143	0.885	-0.679	–	-0.366
in vitro model: valerate, time point: terminal (~4-5 doublings, model-specific)	0.0829	0.938	0.0438	0.152	0.0893

CC(C)/N=c1\cc2n(-c3ccc(Cl)cc3)c3ccccc3nc-2cc1Nc1ccc(Cl)cc1 [clofazimine] + NNC(=O)c1ccncc1 [isoniazid]
Conditions	AUC25, [2]	Einf, [5]	FIC50, [3]	FIC90, [1]	GRinf, [4]
in vitro model: acidic pH 5.7, time point: constant (~7 days, model-specific)	0.1	0.747	0.122	–	0.074
in vitro model: acidic pH 5.7, time point: terminal (~4-5 doublings, model-specific)	0.0893	0.942	0.116	0.154	-0.114
in vitro model: intracellular J774, time point: constant = terminal	–	0.951	–	0.406	-0.209

Conditions	AUC25, [2]	Einf, [5]	FIC50, [3]	FIC90, [1]	GRinf, [4]
in vitro model: butyrate, time point: constant (~7 days, model-specific)	0.0814	0.947	0.425	0.813	-0.079
in vitro model: butyrate, time point: terminal (~4-5 doublings, model-specific)	0.0801	0.988	0.35	0.54	-0.117
in vitro model: cholesterol 0.05 mM, time point: constant (~7 days, model-specific)	0.114	0.719	0.223	–	-0.06
in vitro model: cholesterol 0.05 mM, time point: terminal (~4-5 doublings, model-specific)	0.126	0.928	0.688	0.0937	-0.181
in vitro model: cholesterol-high 0.2 mM, time point: constant (~7 days, model-specific)	0.118	0.93	0.123	-0.0588	-0.856
in vitro model: cholesterol-high 0.2 mM, time point: terminal (~4-5 doublings, model-specific)	0.106	0.999	0.197	0.419	-0.882
in vitro model: dormancy (butyrate + nitrate, low O2), time point: constant (~7 days, model-specific)	0.0958	0.92	-0.176	-0.0674	0.255
in vitro model: dormancy (butyrate + nitrate, low O2), time point: terminal (~4-5 doublings, model-specific)	0.058	0.981	-0.116	-0.0457	-0.0683
in vitro model: standard 7H9 glycerol, time point: constant = terminal	0.105	0.964	-0.0807	0.0617	-0.146
in vitro model: valerate, time point: constant (~7 days, model-specific)	0.144	0.925	0.0757	1.95	-0.0991
in vitro model: valerate, time point: terminal (~4-5 doublings, model-specific)	0.0841	0.937	-0.0577	0.814	0.0302

CC(C)/N=c1\cc2n(-c3ccc(Cl)cc3)c3ccccc3nc-2cc1Nc1ccc(Cl)cc1 [clofazimine] + O=[N+]([O-])c1cn2c(n1)OC[C@@H](OCc1ccc(OC(F)(F)F)cc1)C2 [pretomanid]
Conditions	AUC25, [2]	Einf, [5]	FIC50, [3]	FIC90, [1]	GRinf, [4]
in vitro model: acidic pH 5.7, time point: constant (~7 days, model-specific)	0.134	0.778	-0.0507	–	-0.287
in vitro model: acidic pH 5.7, time point: terminal (~4-5 doublings, model-specific)	0.108	0.974	-0.167	0.503	-0.285
in vitro model: intracellular J774, time point: constant = terminal	–	0.997	–	0.0803	-0.541

Conditions	AUC25, [2]	Einf, [5]	FIC50, [3]	FIC90, [1]	GRinf, [4]
in vitro model: butyrate, time point: constant (~7 days, model-specific)	0.117	0.967	0.464	1.35	-0.167
in vitro model: butyrate, time point: terminal (~4-5 doublings, model-specific)	0.111	0.995	0.356	1.26	-0.159
in vitro model: cholesterol 0.05 mM, time point: constant (~7 days, model-specific)	0.12	0.704	0.602	–	0.0886
in vitro model: cholesterol 0.05 mM, time point: terminal (~4-5 doublings, model-specific)	0.132	0.919	0.632	0.298	-0.123
in vitro model: cholesterol-high 0.2 mM, time point: constant (~7 days, model-specific)	0.106	0.928	0.591	0.676	-0.208
in vitro model: cholesterol-high 0.2 mM, time point: terminal (~4-5 doublings, model-specific)	0.0964	1	0.631	0.816	-0.69
in vitro model: dormancy (butyrate + nitrate, low O2), time point: constant (~7 days, model-specific)	0.0762	0.892	-0.213	-1.07	0.195
in vitro model: dormancy (butyrate + nitrate, low O2), time point: terminal (~4-5 doublings, model-specific)	0.0498	0.991	-0.405	-0.637	-0.234
in vitro model: standard 7H9 glycerol, time point: constant = terminal	0.116	0.964	-0.193	0.585	-0.211
in vitro model: valerate, time point: constant (~7 days, model-specific)	0.136	0.884	0.762	1.18	-0.0878
in vitro model: valerate, time point: terminal (~4-5 doublings, model-specific)	0.097	0.925	-0.0183	1.26	-0.0377
